From patent publication US5858985A, “Treatment of asthma with fructose-1,6-diphosphate” (priority 1997, dated 1999)
Several values for one entry are separate records, joined by “and”; a condition that tells them apart may be missing. Equal entries are not always repeated. Entries after “also recorded” stand apart in the source; their conditions may differ. Where two headings read alike, the source gives them in different places.

Assays:
[1] = test system: human test subject with chronic cough; test: repeated FDP inhalation in a volunteer with chronic cough secondary to allergic bronchitis; type: in vivo
From the text: This subject participated in several studies over 10 days. Prior to FDP inhalation, their baseline PEFR was 390 L/min. This value increased with each and every FDP treatment.

[2] = test system: RNA encoding the IL-2 protein; test: IL-2 RNA expression in ConA-stimulated lymphocytes (reverse transcription, PCR, densitometry); type: cell-based; conditions: rat lymphocytes pre-treated with FDP, ConA stimulation, 5 days of incubation
Procedure: The Applicant also investigated the expression of cytokines by T-lymphocytes. Isolated lymphocytes were obtained from rats, and incubated with stimulation by ConA treatment, as described above; treated cells were pre-treated with FDP, as described above, while control cells were not treated with FDP. After 5 days of incubation, RNA was extracted from the lymphocytes, using RNA-stat60. The integrity of RNA samples was evaluated by use of agarose-formaldehyde gel electrophoresis, and its quantity was determined spectrophotometrically.
The RNA was transcribed into complementary DNA (cDNA), using a reverse transcriptase enzyme. 10 μl of solution containing 1 μg of total cellular RNA was heated at 65° C. for 10 min, and then chilled on ice. To this solution was added 10 μl of a mixture containing 2× reverse transcriptase buffer (100 mM Tris-HCl, pH 8.3, 150 mM KC1, 6 MM MgCl2), 1 μg oligo(dT)12-18, 100 μg/ml of acetylated bovine serum albumin, 0.5 mM mixed deoxynucleotides (dNTP), 10 units of RNAasin, and 100 units of MMLV reverse transcriptase enzyme. The mixture was incubated for 45 min at 35° C., then chilled on ice.
The cDNA sequences for three specific interleukins (IL-1, IL-2, and IL-6) were then amplified, using polymerase chain reaction (PCR) techniques, using previously published sense and anti-sense primer sequences for rat IL-1, rat IL-2, and rat IL-6. […]

human IL-2 = test: interleukin-2 production by human T-cells stimulated by Con-A (ELISA); type: cell-based; conditions: all tested FDP concentrations, result in words
Procedure: In addition, the amounts of IL-2 released by human T-cells were also evaluated, using ConA stimulation in the presence or absence of FDP. These tests used a commercially available human immunoassay kit (Inter Test-2X IL-2 Elisa Kit, sold by Genzyme Corp., Cambridge, Mass.) which uses monoclonal antibodies that bind specifically to human IL-2. The results, in Table 3, indicate that FDP, at all tested concentrations, abolished IL-2 production by the stimulated human T-lymphocytes. IL-2 concentrations are expressed in picograms per milliliter of media.

human volunteers = test: lung function (peak expiratory flow rate) in healthy human volunteers after nebulized inhalation; type: in vivo
Procedure: When adjusted to deliver 56-68 L/min with a 5-6 L/min oxygen flow, the final oxygen content was 28%. The output tube from the nebulizer was connected to a standard face mask, which was placed on the face of the subject. The bottle of the nebulizer contained 100 ml of the FDP solution. The FDP dose delivered in the mist, during the 5 consecutive breaths, was calculated to be about 12 mg.
Prior to the FDP inhalation, in each volunteer, 3 consecutive peak expiratory flow rate (PEFR) measurements were made with the aid of an Astech Peak Flow Meter (Center Laboratories, Port Washington, N.Y. 11050). Briefly, these tests involved having each volunteer take as deep a breath as possible, and then blow as hard as possible into the meter. This was done over a period of a couple of minutes, giving the volunteer some time to catch their breath before and after each effort. The mean of these three measurements was considered as the baseline PEFR value for that person. Baseline heart rates, systolic and diastolic blood pressures, and body temperatures were also measured.
FDP inhalations (5 breaths in each set) were then made, approximately 15, 30, 45, 75, 105 and 165 minutes after the baseline measurements had been made. On several occasions, FDP inhalations were also made, 2 and 5 minutes after the baseline measurements were taken. After each such inhalation, three different expirations were measured, all within a couple of minutes after the FDP inhalation had been completed. The various measurements made after FDP inhalation were compared with the baseline values, before FDP administration. The t-test was used to compare paired observations, and differences were considered significant only when the two-tailed p value was <0.05.

[3] = test system: Sprague-Dawley rats injected with compound 48/80; test: compound 48/80-induced shock (histamine release by mast cells) in rats; type: in vivo, rat
Procedure: As noted above, the release of histamine by mast cells plays a significant role in aggravating asthma attacks. FDP was evaluated to determine whether it could help suppress histamine release by mast cells, in tests that use a compound called "48/80", which is known to trigger the release of histamine by mast cells. This compound, if injected into an animal at an appropriate dosage, will trigger sufficient histamine release to send the animal into anaphylactic shock, which poses a lethal challenge. Useful physiological measurements can be made during the test period, and if mortality is studied as an endpoint, an animal is deemed to survive if it lives for 48 hours after injection of the 48/80 compound.
Anesthetized male Sprague-Dawley rats (n=20) weighing 448±7.4 gm were randomly assigned into 2 groups. Animals in the FDP-treated group were injected intraperitoneally (IP) with a 10% (w/v) solution of FDP in water, at a dosage of 2.5 gm/kg (i.e., 2.5 grams of FDP per kilogram of body weight). […] Thirty minutes later, all rats were injected IP with compound 48/80, at 5 mg/kg.

rat T-lymphocyte = test: inhibition of T-lymphocyte proliferation after stimulation with Con-A ((3H)-thymidine incorporation); type: cell-based
Procedure: Lymphocyte cells were isolated either from human venous blood or rat spleen. The cells were suspended in Dulbecco's media. A manual cell count was done using 0.1 ml of Trypan blue and 0.1 ml of the cell media mixture. […] Tissue culture multi-well plates were used for incubation and in each well 0.1 ml of cell suspension was placed. To the FDP treatment wells (in triplicate) were added 0.1 ml of FDP from 10% stock solution, in serial dilutions which included 1:10, 1:100, 1:250, 1:500; 1:1000, and 1:10000). Cyclosporine treatment wells received 0.1 ml cyclosporine A, at various concentrations including 500 ng/ml, 50 ng/ml; 5 ng/ml and 0.5 ng/ml. All wells except control wells received concanavalin A (conA) at […] (0.01 ml). The final volume for all wells was 0.21 ml.
After incubation, the cells were pulsed in 5% Co2 at 37° C. with 1 μCi of (^3 H)-thymidine (i.e., the cells were incubated for a controlled period of time with thymidine, one of the building blocks of DNA, which contained tritium, a radioactive isotope of hydrogen). The cells were harvested, and washed to remove any tritiated thymidine that had not been incorporated into new DNA. The radioactivity levels of the treated cells were then measured, using a scintillation counter. The results, in Table 2, are reported as counts/min.

[4] = test system: mongrel dogs challenged with methacholine; test: acute experimental asthma (bronchospasm) induced in dogs by methacholine inhalation; type: in vivo, dog
[5] = test system: membrane-bonded Na+--K+ ATPase enzymes; type: biochemical, rat; conditions: pretreatment with 500 μM FDP
Procedure: Oleander toxins were prepared by air-drying leaves from red-flowering Nerium oleander plants for 4 days, pulverizing the leaves to a fine powder in a blender, and extracting the leaves in a 95% ethyl alcohol solution for 10 days. After extraction, the tincture was filtered, and part of the alcohol solvent was removed by flash evaporation, to a volume where 1 gram of crude drug was equal to 1 ml of alcohol solution. The extract was stored as a stock solution at 0° C., and periodically analyzed for alkaloid content by high pressure liquid chromatography, using oleandrin as an external standard. […]
When ready for use, intact isolated rat hearts were transferred to ice-cold homogenizing medium (50 mM Na2 HPO4, 10 mM Na2 EDTA, and 25 mM NaF, pH 7.4). […]
The pellet obtained after this centrifugation, consisting of crude membrane vesicles, was suspended in a storage buffer (30 mM histidine, 0.25 M sucrose, 10 mM EDTA, and 10 mM NaF, pH 7.5) and stored at -80° C. until use. Protein content was determined using a Biorad protein assay kit, with gamma globulin as a standard.
The Na^+ --K^+ ATPase activity levels for these sarcolemmal membrane preparations was determined calorimetrically by measuring how much inorganic phosphate (Pi) was liberated when the ATPase enzyme hydrolyzed ATP to release phosphate groups. […]

[6] = one subject, reported after 10 days of FDP inhalations

Compound: O=C(COP(=O)(O)O)[C@@H](O)[C@H](O)[C@H](O)COP(=O)(O)O [FDP, fructose-1,6-diphosphate]
- PEFR at 10 days after the first inhalation ([1]; one subject with chronic cough, repeated FDP inhalation, baseline 390, P<0.01): 520 L/min
- breathing [1, 6]: substantially improved
- coughing [1, 6]: nearly disappeared
- RNA encoding the IL-2 protein [2]: no detectable levels of RNA encoding the IL-2 protein
- IL-2 production by the stimulated human T-lymphocytes (human IL-2): no detectable IL-2
- side effects (human volunteers; all tests on volunteers, other than decreased heart rates and increased pulmonary ventilation rates): no side effects were noticed
- blood pressure or body temperature (human volunteers; five volunteers, 10% FDP nebulized): did not elicit any changes
- mean peak expiratory flow rate (PEFR) following FDP administration (human volunteers; five volunteers, 10% FDP nebulized, 5 breaths (about 12 mg), baseline 471±29.6, P<0.005): 529 ± 35.6 L/min
- PEFR after inhalation session (human volunteers; one volunteer, 20% FDP solution for 10 min, 700 mg inhaled, baseline 616): 667 L/min
- side effects (human volunteers; one volunteer, high dosages (700 to 750 mg, 20% or 10% solution, ten minute inhalation)): no side effects were detected
- arterial pressure ([3]; FDP 2.5 gm/kg IP 30 min before compound 48/80 5 mg/kg IP, vs saline group, P<0.005, FIG. 1): significantly higher than in the saline group
- mortality ([3]; FDP 2.5 gm/kg IP before compound 48/80 5 mg/kg IP, survival = 48 hours, saline group 100%, P<0.001): 20%
- plasma potassium ([3]; FDP 2.5 gm/kg IP before compound 48/80 5 mg/kg IP, vs saline group, P<0.01, FIG. 2, 5 mg/kg): remained within normal values; also recorded: lower
- average arterial partial pressure of oxygen (PO2) ([3]; FDP 2.5 gm/kg IP before compound 48/80, saline group 98±9.2): 121±6.1 mm Hg
- Activation Index (rat T-lymphocyte; Con-A plus 1:10 dilution of 10% FDP stock, Con-A alone 30718 ± 4316, no Con-A 527 ± 139): 101 ± 16 counts/min
- Activation Index (rat T-lymphocyte; Con-A plus 1:100 dilution of 10% FDP stock): 190 ± 42 counts/min
- Activation Index (rat T-lymphocyte; Con-A plus 1:250 dilution of 10% FDP stock): 383 ± 170 counts/min
- Activation Index (rat T-lymphocyte; Con-A plus 1:500 dilution of 10% FDP stock): 3592 ± 974 counts/min
- Activation Index (rat T-lymphocyte; Con-A plus 1:1000 dilution of 10% FDP stock): 12288 ± 1880 counts/min
- Activation Index (rat T-lymphocyte; Con-A plus 1:10,000 dilution of 10% FDP stock): 19046 ± 3237 counts/min
- ConA-induced activation and proliferation of T-cells (rat T-lymphocyte; result in words, cyclosporine A tested at 0.5 to 500 ng/ml): able to block ConA activation of the lymphocytes; also recorded: inhibited the ConA-induced activation and proliferation of T-cells in a dose dependent manner
- arterial blood oxygen partial pressure, Baseline ([4]; dogs pre-treated with aerosolized 10% FDP for 3 minutes, before methacholine): 89 ± 1.74 mm Hg
- arterial blood oxygen partial pressure (PaO2), 5 min ([4]; dogs pre-treated with aerosolized 10% FDP, 5 min after methacholine, controls 47 ± 2.85, p = 0.007): 70±5.62 mm Hg and 69 ± 6.49 mm Hg
- arterial blood oxygen partial pressure (PaO2), 15 min ([4]; dogs pre-treated with aerosolized 10% FDP, 15 min after methacholine, controls 53 ± 3.86, p < 0.001): 81 ± 3.36 mm Hg
- PCO2 ([4]; dogs, methacholine challenge with FDP treatment): no consistent alterations
- PaO2 level at 5 minutes after FDP treatment ([4]; five dogs treated with FDP after (not before) methacholine, p<0.006): 64±4.26 mm Hg
- PaO2 level at 30 minutes after FDP treatment ([4]; five dogs treated with FDP after (not before) methacholine, p<0.01): 80±4.04 mm Hg
- PaO2 level at 15 minutes after FDP treatment ([4]; five dogs treated with FDP after (not before) methacholine, p<0.02): 72±1.84 mm Hg
- Na+--K+ ATPase activity ([5]; oleander extract 1.0 mg): 19.32 ± 0.62 micromoles of inorganic phosph
- Na+--K+ ATPase activity ([5]; oleander extract 2.0 mg): 15.75 ± 0.39 micromoles of inorganic phosph

Compound: albuterol sulfate [reference compound]
- PEFR (human volunteers; albuterol sulfate inhalation solution 0.005% w/v in 0.9% NaCl, two occasions, identical procedures): did not induce any significant change
